{
  "source": "ChEMBL document CHEMBL2040717",
  "about": "“Cytotoxic diterpenoids from Sapium insigne” (J Nat Prod, 2012)",
  "key": {"A549 [1]": {"test_system": "A549", "assay": "Cytotoxicity against human A549 cells at 100 uM by SRB assay", "assay_type": "functional, cell-based"}, "HL-60 [2]": {"test_system": "HL-60", "assay": "Cytotoxicity against human HL60 cells at 100 uM by MTT assay"}, "A549 [3]": {"test_system": "A549", "assay": "Cytotoxicity against human A549 cells by SRB assay", "assay_type": "functional, cell-based"}, "HL-60 [4]": {"test_system": "HL-60", "assay": "Cytotoxicity against human HL60 cells by MTT assay"}},
  "note": "pIC50: −log10 of the molar value. Activity calls are given as the source filed them. The calls are words filed in the database; no cut-off is given here.",
  "data": [
    {"molecule": "CC[C@H](C)CC[C@@H]1[C@H](C)CC[C@@H]2C(C)(C)CCC[C@@]12C", "values": [
      {"measurement": "Activity", "setting": "A549 [1]", "result": "inactive"},
      {"measurement": "Activity", "setting": "HL-60 [2]", "result": "inactive"}
    ]},
    {"molecule": "C[C@H]1C[C@@]23CC[C@@H]4C(C)(C)CCC[C@@]4(C)[C@@H]2CC[C@@H]1C3", "values": [
      {"measurement": "Activity", "setting": "A549 [1]", "result": "inactive"},
      {"measurement": "Activity", "setting": "HL-60 [2]", "result": "inactive"}
    ]},
    {"molecule": "C[C@H]1C[C@]23CC[C@H]1C[C@H]2[C@]1(C)CCCC(C)(C)[C@H]1CC3", "values": [
      {"measurement": "Activity", "setting": "A549 [1]", "result": "inactive"},
      {"measurement": "Activity", "setting": "HL-60 [2]", "result": "inactive"}
    ]},
    {"molecule": "CCCCCCCC[C@@H](O)/C=C/C=C/C(=O)O[C@@]12C[C@@H](C)[C@@]3(O)[C@@H](C=C(CO)C[C@]4(O)C(=O)C(C)=C[C@@H]34)[C@@H]1[C@@]2(C)COC(C)=O", "note": "[SAPINSIGNOID A]", "values": [
      {"measurement": "pIC50", "setting": "A549 [3]", "result": 5.74},
      {"measurement": "pIC50", "setting": "HL-60 [4]", "result": 5.47}
    ]},
    {"molecule": "CCCCCCCC[C@H](O)/C=C/C=C/C(=O)O[C@@]12C[C@@H](C)[C@@]3(O)[C@@H](C=C(CO)C[C@]4(O)C(=O)C(C)=C[C@@H]34)[C@@H]1[C@@]2(C)COC(C)=O", "note": "[SAPINSIGNOID B]", "values": [
      {"measurement": "pIC50", "setting": "A549 [3]", "result": 6.70},
      {"measurement": "pIC50", "setting": "HL-60 [4]", "result": 5.19}
    ]},
    {"molecule": "CCCCCCCCC(=O)/C=C/C=C/C(=O)O[C@@]12C[C@@H](C)[C@@]3(O)[C@@H](C=C(CO)C[C@]4(O)C(=O)C(C)=C[C@@H]34)[C@@H]1[C@@]2(C)COC(C)=O", "note": "[SAPINSIGNOID C]", "values": [
      {"measurement": "pIC50", "setting": "A549 [3]", "result": 6.40},
      {"measurement": "pIC50", "setting": "HL-60 [4]", "result": 5.57}
    ]},
    {"molecule": "CCCCCCCC/C=C/C=C/CC(=O)O[C@@]12C[C@@H](C)[C@@]3(O)[C@@H](C=C(CO)C[C@]4(O)C(=O)C(C)=C[C@@H]34)[C@@H]1[C@@]2(C)COC(C)=O", "note": "[SAPINSIGNOID D]", "values": [
      {"measurement": "pIC50", "setting": "A549 [3]", "result": 6.05}
    ]}
  ]
}
